Data as given in US20240317744A1, “Bicyclic Ureas As Kinase Inhibitors” (Incyte Corporation, priority 2023, published 2024).

How the values were obtained:
[1] = biological target: catalytic domain (JH1, amino acids 808-1132) of human JAK2 (Homo sapiens, UniProt O60674); assay: JAK2 HTRF Enzyme Activity Assay; type: biochemical; details: ATP 30 µM, 60 minutes at 25° C.; read-out: V617F ENZ 30 UM
[2] = biological target: T1, catalytic domain (JH1, amino acids 826-1132) of human JAK2 (Homo sapiens, UniProt O60674); assay: JAK2 LanthaScreen JH1 Binding Assay; details: JAK2 JH1 1.5 nM, 50 nM tracer, 2 hours at 25° C.; read-out: JH1 BIND
T1 construct: catalytic domain (JH1, amino acids 826-1132) of human JAK2; FLAG (N); biotin (biotinylated); purchased Carna Biosciences 08-445-20N; host or cells: baculovirus expression system
Procedure, shortened: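 FLAG-tagged, biotinylated JAK2 JH1 (aa 826-1132, baculovirus-expressed; 1.5 nM) incubated 2 h at 25° C with compounds, 50 nM fluorescent tracer and 0.5 nM Streptavidin-Tb in Tris pH 7.5 buffer with MgCl2, Brij-35, BSA, EGTA, glycerol, DTT. Nonspecific binding defined with 2 mM ATP; TR-FRET IC50 from four-parameter fit.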

[3] = biological target: T2, pseudo-kinase domain (JH2, amino-acids 536-812) of human V617F mutant JAK2 (Homo sapiens, UniProt O60674, F794H/V617F/W659A/W777A); assay: JAK2 LanthaScreen JH2-V617F Binding Assay; details: JAK2 JH2-V617F 0.26 nM, 50 nM tracer, 1 hour at 25° C.; read-out: JH2 BIND V617F
T2 construct: pseudo-kinase domain (JH2, amino-acids 536-812 with 3 surface mutations W659A, W777A, F794H); His (C); purchased BPS Bioscience 79498; host or cells: baculovirus expression system
Procedure, shortened: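 IC50 values came from four-parameter dose-response fits of LanthaScreen signal, read after compounds sat 1 hour at 25° C with 0.26 nM baculovirus-expressed biotinylated protein, 50 nM fluorescent tracer and 0.25 nM streptavidin-Tb cryptate. Non-specific binding was set with 2 mM ATP.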

[4] = biological target: T3, pseudo-kinase domain (JH2, amino-acids 536-812) of human Wild Type JAK2 (Homo sapiens, UniProt O60674, F794H/W659A/W777A); assay: JAK2 LanthaScreen JH2-WT Binding Assay; details: JAK2 JH2-WT 0.145 nM, 50 nM tracer, 1 hour at 25° C.; read-out: JH2 BIND WT
T3 construct: pseudo-kinase domain (JH2, amino-acids 536-812 with 3 surface mutations W659A, W777A, F794H); His (C); purchased BPS Bioscience 79463; host or cells: baculovirus expression system
Procedure, shortened: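 TR-FRET tracer displacement: IC50 from four-parameter dose-response fit. Reaction: compound, 0.145 nM biotinylated JH2 protein from baculovirus, 0.25 nM streptavidin-Tb and 50 nM tracer, 1 h at 25° C, 50 mM Tris pH 7.5 buffer. 2 mM ATP gave non-specific binding.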

Sequence of catalytic domain (JH1, amino acids 808-1132) of human JAK2 (O60674 808-1132 limits assumed): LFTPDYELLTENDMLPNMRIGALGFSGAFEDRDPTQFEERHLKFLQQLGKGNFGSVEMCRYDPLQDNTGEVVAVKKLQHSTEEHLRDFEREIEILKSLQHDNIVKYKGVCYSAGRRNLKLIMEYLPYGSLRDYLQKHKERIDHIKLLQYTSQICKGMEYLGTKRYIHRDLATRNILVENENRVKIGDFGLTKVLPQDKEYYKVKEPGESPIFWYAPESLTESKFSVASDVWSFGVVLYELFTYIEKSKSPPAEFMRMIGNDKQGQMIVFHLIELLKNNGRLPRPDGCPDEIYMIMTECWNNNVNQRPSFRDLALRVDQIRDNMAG
T1 sequence (O60674 826-1132): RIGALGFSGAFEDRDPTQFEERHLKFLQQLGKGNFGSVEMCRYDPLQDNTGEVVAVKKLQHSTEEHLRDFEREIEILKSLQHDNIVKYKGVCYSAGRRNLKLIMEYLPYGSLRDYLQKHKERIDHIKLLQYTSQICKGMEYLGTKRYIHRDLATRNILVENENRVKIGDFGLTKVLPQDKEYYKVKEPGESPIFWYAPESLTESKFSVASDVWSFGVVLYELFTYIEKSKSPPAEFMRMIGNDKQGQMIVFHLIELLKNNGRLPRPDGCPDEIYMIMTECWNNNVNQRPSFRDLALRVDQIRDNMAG
T3 sequence (O60674 536-812 W659A/W777A/F794H): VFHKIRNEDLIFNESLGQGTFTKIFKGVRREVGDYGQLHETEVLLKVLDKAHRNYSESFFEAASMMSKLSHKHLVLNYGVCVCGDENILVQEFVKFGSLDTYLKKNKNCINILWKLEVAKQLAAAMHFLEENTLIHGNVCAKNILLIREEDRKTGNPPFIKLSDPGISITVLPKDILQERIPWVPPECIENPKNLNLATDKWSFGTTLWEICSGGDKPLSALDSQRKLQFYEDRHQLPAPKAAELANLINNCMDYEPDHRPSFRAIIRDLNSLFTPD
T2 sequence (O60674 536-812 V617F/W659A/W777A/F794H): as the sequence (O60674 536-812 W659A/W777A/F794H) above, with V82F counted along it

## COC(=O)N[C@@H]1CC[C@@H](n2c(=O)n(C)c3cnc(Nc4ccc5ncc(-c6cnn(C)c6)n5n4)cc32)C1 [Example 34, Methyl ((1R,3R)-3-(3-methyl-6-((3-(1-methyl-1H-pyrazol-4-yl)imidazo[1,2-b]pyridazin-6-yl)amino)-2-oxo-2,3-dihydro-1H-imidazo[4,5-c]pyridin-1-yl)cyclopentyl)carbamate]
[1]
  IC50: > 1000 nM
[2]
  IC50: > 1000 nM
[3]
  IC50: ≤ 10 nM
[4]
  IC50: ≤ 10 nM

## COC(=O)N[C@@H]1CC[C@@H](n2c(=O)n(C)c3cnc(Nc4ccn5nc(-c6cnn(C)c6)cc5n4)cc32)C1 [Example 35, Methyl ((1R,3R)-3-(3-methyl-6-((2-(1-methyl-1H-pyrazol-4-yl)pyrazolo[1,5-a]pyrimidin-5-yl)amino)-2-oxo-2,3-dihydro-1H-imidazo[4,5-c]pyridin-1-yl)cyclopentyl)carbamate]
[1]
  IC50: > 1000 nM
[2]
  IC50: > 1000 nM
[3]
  IC50: 10 to 100 nM
[4]
  IC50: 10 to 100 nM

## COC(=O)N[C@@H]1CC[C@@H](n2c(=O)n(C)c3cnc(Nc4ccn5ncc(-c6cnn(C)c6)c5n4)cc32)C1 [Example 36, Methyl ((1R,3R)-3-(3-methyl-6-((3-(1-methyl-1H-pyrazol-4-yl)pyrazolo[1,5-a]pyrimidin-5-yl)amino)-2-oxo-2,3-dihydro-1H-imidazo[4,5-c]pyridin-1-yl)cyclopentyl)carbamate]
[1]
  IC50: > 1000 nM
[2]
  IC50: > 1000 nM
[3]
  IC50: 10 to 100 nM
[4]
  IC50: ≤ 10 nM

## COC(=O)N[C@@H]1CC[C@@H](n2c(=O)n(C)c3cnc(Nc4cccc(OC5CCOCC5)n4)cc32)C1 [Example 37, Methyl ((1R,3R)-3-(3-methyl-2-oxo-6-((6-((tetrahydro-2H-pyran-4-yl)oxy)pyridin-2-yl)amino)-2,3-dihydro-1H-imidazo[4,5-c]pyridin-1-yl)cyclopentyl)carbamate]
[1]
  IC50: > 1000 nM
[2]
  IC50: > 1000 nM
[3]
  IC50: 10 to 100 nM
[4]
  IC50: ≤ 10 nM

## COC(=O)N[C@@H]1CC[C@@H](n2c(=O)n(C)c3cnc(Nc4ccc5ncc(-c6cncn6C)n5n4)cc32)C1 [Example 38, Methyl ((1R,3R)-3-(3-methyl-6-((3-(1-methyl-1H-imidazol-5-yl)imidazo[1,2-b]pyridazin-6-yl)amino)-2-oxo-2,3-dihydro-1H-imidazo[4,5-c]pyridin-1-yl)cyclopentyl)carbamate]
[1]
  IC50: > 1000 nM
[2]
  IC50: > 1000 nM
[3]
  IC50: 10 to 100 nM
[4]
  IC50: ≤ 10 nM

## COC(=O)Nc1cc(Nc2cc3c(cn2)n(C)c(=O)n3C2[C@H]3CN(C(=O)OC)C[C@@H]23)cc(-c2cnn(C)c2)c1 (stereo partly drawn) [Example 39, Methyl (1R,5S)-6-(6-((3-((methoxycarbonyl)amino)-5-(1-methyl-1H-pyrazol-4-yl)phenyl)amino)-3-methyl-2-oxo-2,3-dihydro-1H-imidazo[4,5-c]pyridin-1-yl)-3-azabicyclo[3.1.0]hexane-3-carboxylate]
[1]
  IC50: > 1000 nM
[2]
  IC50: > 1000 nM
[3]
  IC50: 100 to 500 nM
[4]
  IC50: 100 to 500 nM

## COC(=O)Nc1cc(Nc2cc3c(cn2)n(C)c(=O)n3C2CC3CC2CN3C(C)=O)cc(-c2cnn(C)c2)c1 (stereo not shown) [Example 40, Methyl (3-((1-(2-acetyl-2-azabicyclo[2.2.1]heptan-5-yl)-3-methyl-2-oxo-2,3-dihydro-1H-imidazo[4,5-c]pyridin-6-yl)amino)-5-(1-methyl-1H-pyrazol-4-yl)phenyl)carbamate]
[1]
  IC50: > 1000 nM
[2]
  IC50: > 1000 nM
[3]
  IC50: 10 to 100 nM
[4]
  IC50: 10 to 100 nM

## COC(=O)N[C@@H]1CC[C@@H](n2c(=O)n(C)c3cnc(Nc4cc(NS(=O)(=O)C5CC(F)(F)C5)cc(C5CCOCC5)c4)cc32)C1 [Example 41, Methyl ((1R,3R)-3-(6-((3-((3,3-difluorocyclobutane)-1-sulfonamido)-5-(tetrahydro-2H-pyran-4-yl)phenyl)amino)-3-methyl-2-oxo-2,3-dihydro-1H-imidazo[4,5-c]pyridin-1-yl)cyclopentyl)carbamate]
[1]
  IC50: > 1000 nM
[2]
  IC50: > 1000 nM
[3]
  IC50: 10 to 100 nM
[4]
  IC50: 10 to 100 nM

## COC(=O)Nc1cc(Nc2cc3c(cn2)n(C)c(=O)n3C2CCC(C)(NC(=O)OC)CC2)cc(-c2cnn(C)c2)c1 (stereo not shown) [Example 42, Methyl (3-((1-(4-((methoxycarbonyl)amino)-4-methylcyclohexyl)-3-methyl-2-oxo-2,3-dihydro-1H-imidazo[4,5-c]pyridin-6-yl)amino)-5-(1-methyl-1H-pyrazol-4-yl)phenyl)carbamate]
[1]
  IC50: > 1000 nM
[2]
  IC50: > 1000 nM
[3]
  IC50: 10 to 100 nM
[4]
  IC50: 10 to 100 nM

## COCCOC(=O)N[C@@H]1CC[C@@H](n2c(=O)n(C)c3cnc(Nc4cc(NC(=O)OC5CCC5)cc(-c5cnn(C)c5)c4)cc32)C1 [Example 43, 2-Methoxyethyl ((1R,3R)-3-(6-((3-((cyclobutoxycarbonyl)amino)-5-(1-methyl-1H-pyrazol-4-yl)phenyl)amino)-3-methyl-2-oxo-2,3-dihydro-1H-imidazo[4,5-c]pyridin-1-yl)cyclopentyl)carbamate]
[1]
  IC50: > 1000 nM
[2]
  IC50: > 1000 nM
[3]
  IC50: 10 to 100 nM
[4]
  IC50: 10 to 100 nM

## COC(=O)N[C@@H]1CC[C@@H](n2c(=O)n(C)c3cnc(Nc4cc(NC(=O)OC5CCC5)cc(C5CCOCC5)c4)cc32)C1 [Example 44, Methyl ((1R,3R)-3-(6-((3-((cyclobutoxycarbonyl)amino)-5-(tetrahydro-2H-pyran-4-yl)phenyl)amino)-3-methyl-2-oxo-2,3-dihydro-1H-imidazo[4,5-c]pyridin-1-yl)cyclopentyl)carbamate]
[1]
  IC50: > 1000 nM
[2]
  IC50: > 1000 nM
[3]
  IC50: > 1000 nM
[4]
  IC50: > 1000 nM

## Cn1cc(-c2cc(NC(=O)OC3CCC3)cc(Nc3cc4c(cn3)n(C)c(=O)n4[C@@H]3CC[C@@H](NC(=O)OC4CCC4)C3)c2)cn1 [Example 45, Cyclobutyl ((1R,3R)-3-(6-((3-((cyclobutoxycarbonyl)amino)-5-(1-methyl-1H-pyrazol-4-yl)phenyl)amino)-3-methyl-2-oxo-2,3-dihydro-1H-imidazo[4,5-c]pyridin-1-yl)cyclopentyl)carbamate]
[1]
  IC50: > 1000 nM
[2]
  IC50: > 1000 nM
[3]
  IC50: 10 to 100 nM
[4]
  IC50: 10 to 100 nM

## CCOC(=O)N[C@@H]1CC[C@@H](n2c(=O)n(C)c3cnc(Nc4cc(NC(=O)OC5CCC5)cc(-c5cnn(C)c5)c4)cc32)C1 [Example 46, Ethyl ((1R,3R)-3-(6-((3-((cyclobutoxycarbonyl)amino)-5-(1-methyl-1H-pyrazol-4-yl)phenyl)amino)-3-methyl-2-oxo-2,3-dihydro-1H-imidazo[4,5-c]pyridin-1-yl)cyclopentyl)carbamate]
[1]
  IC50: > 1000 nM
[2]
  IC50: > 1000 nM
[3]
  IC50: 10 to 100 nM
[4]
  IC50: 10 to 100 nM

## C#CCOC(=O)N[C@@H]1CC[C@@H](n2c(=O)n(C)c3cnc(Nc4cc(NC(=O)OC5CCC5)cc(-c5cnn(C)c5)c4)cc32)C1 [Example 47, Prop-2-yn-1-yl ((1R,3R)-3-(6-((3-((cyclobutoxycarbonyl)amino)-5-(1-methyl-1H-pyrazol-4-yl)phenyl)amino)-3-methyl-2-oxo-2,3-dihydro-1H-imidazo[4,5-c)pyridin-1-yl)cyclopentyl)carbamate]
[1]
  IC50: > 1000 nM
[2]
  IC50: > 1000 nM
[3]
  IC50: ≤ 10 nM
[4]
  IC50: ≤ 10 nM

## Cn1cc(-c2cc(NC(=O)OC3CCC3)cc(Nc3cc4c(cn3)n(C)c(=O)n4[C@@H]3CC[C@@H](NC(=O)OC4CCOCC4)C3)c2)cn1 [Example 48, Tetrahydro-2H-pyran-4-yl ((1R,3R)-3-(6-((3-((cyclobutoxycarbonyl)amino)-5-(1-methyl-1H-pyrazol-4-yl)phenyl)amino)-3-methyl-2-oxo-2,3-dihydro-1H-imidazo[4,5-c]pyridin-1-yl)cyclopentyl)carbamate]
[1]
  IC50: > 1000 nM
[2]
  IC50: > 1000 nM
[3]
  IC50: 10 to 100 nM
[4]
  IC50: 10 to 100 nM

## Cn1cc(-c2cc(NC(=O)OC3CCC3)cc(Nc3cc4c(cn3)n(C)c(=O)n4[C@@H]3CC[C@@H](NC(=O)Oc4ccc(F)cc4)C3)c2)cn1 [Example 49, 4-Fluorophenyl ((1R,3R)-3-(6-((3-((cyclobutoxycarbonyl)amino)-5-(1-methyl-1H-pyrazol-4-yl)phenyl)amino)-3-methyl-2-oxo-2,3-dihydro-1H-imidazo[4,5-c]pyridin-1-yl)cyclopentyl)carbamate]
[1]
  IC50: > 1000 nM
[2]
  IC50: > 1000 nM
[3]
  IC50: ≤ 10 nM
[4]
  IC50: ≤ 10 nM
